Data: the supplement of paper PMC10307832

Tests used:
Experiment in all cases: relative viability (nuclei count vs DMSO), 5 days (fraction); higher = more cells survive
NCI-H1792 = test system: NCI-H1792
How it was run: (§1)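 Lung cancer cell lines were pin-tool dosed in 1536-well plates on the day after seeding, with either a lone drug or a fixed anchor-drug dose plus five library-drug doses (not always all listed) in √10 steps. Nuclei were counted on 4× images after 5 days. Relative viability is the ratio of treated-well to vehicle-well nuclei counts, with each value a median of duplicate plates.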

HCC-827 = test system: HCC-827
How it was run: as §1

EKVX = test system: EKVX
How it was run: as §1

NCI-H2009 = test system: NCI-H2009
How it was run: as §1

NCI-H2087 = test system: NCI-H2087
How it was run: as §1

NCI-H2405 = test system: NCI-H2405
How it was run: as §1

NCI-H2170 = test system: NCI-H2170
How it was run: as §1

LC-2-ad = test system: LC-2-ad
How it was run: as §1

BEN = test system: BEN
How it was run: as §1

NCI-H2342 = test system: NCI-H2342
How it was run: as §1

SK-MES-1 = test system: SK-MES-1
How it was run: as §1

NCI-H1734 = test system: NCI-H1734
How it was run: as §1

NCI-H1395 = test system: NCI-H1395
How it was run: as §1

NCI-H1355 = test system: NCI-H1355
How it was run: as §1

HCC-366 = test system: HCC-366
How it was run: as §1

NCI-H2228 = test system: NCI-H2228
How it was run: as §1

NCI-H596 = test system: NCI-H596
How it was run: as §1

HARA = test system: HARA
How it was run: as §1

NCI-H647 = test system: NCI-H647
How it was run: as §1

SK-LU-1 = test system: SK-LU-1
How it was run: as §1

LOU-NH91 = test system: LOU-NH91
How it was run: as §1

NCI-H661 = test system: NCI-H661
How it was run: as §1

NCI-H1437 = test system: NCI-H1437
How it was run: as §1

NC(=O)Nc1cc(-c2cccc(F)c2)sc1C(=O)N[C@H]1CCCNC1 [AZD7762] + O=C(c1cc(Cc2n[nH]c(=O)c3ccccc23)ccc1F)N1CCN(C(=O)C2CC2)CC1 [Olaparib] (partner 8 µM)
relative viability (NCI-H1792; first compound 0.01 µM): 0.336 | relative viability (NCI-H1792; first compound 0.03162 µM): 0.421 | relative viability (NCI-H1792; first compound 0.1 µM): 0.364 | relative viability (NCI-H1792; first compound 0.3162 µM): 0.352 | relative viability (NCI-H1792; first compound 1 µM): 0.221 | relative viability (HCC-827; first compound 0.01 µM): 0.654 | relative viability (HCC-827; first compound 0.03162 µM): 0.678 | relative viability (HCC-827; first compound 0.1 µM): 0.64 | relative viability (HCC-827; first compound 0.3162 µM): 0.267 | relative viability (HCC-827; first compound 1 µM): 0.288 | relative viability (EKVX; first compound 0.01 µM): 0.82 | relative viability (EKVX; first compound 0.03162 µM): 1.04 | relative viability (EKVX; first compound 0.1 µM): 0.62 | relative viability (EKVX; first compound 0.3162 µM): 0.844 | relative viability (EKVX; first compound 1 µM): 0.393 | relative viability (NCI-H2009; first compound 0.01 µM): 0.719 | relative viability (NCI-H2009; first compound 0.03162 µM): 0.726 | relative viability (NCI-H2009; first compound 0.1 µM): 0.747 | relative viability (NCI-H2009; first compound 0.3162 µM): 0.521 | relative viability (NCI-H2009; first compound 1 µM): 0.34 | relative viability (NCI-H2087; first compound 0.01 µM): 0.712 | relative viability (NCI-H2087; first compound 0.03162 µM): 0.768 | relative viability (NCI-H2087; first compound 0.1 µM): 0.806 | relative viability (NCI-H2087; first compound 0.3162 µM): 0.858 | relative viability (NCI-H2087; first compound 1 µM): 0.583 | relative viability (NCI-H2405; first compound 0.01 µM): 0.889 | relative viability (NCI-H2405; first compound 0.03162 µM): 0.911 | relative viability (NCI-H2405; first compound 0.1 µM): 0.837 | relative viability (NCI-H2405; first compound 0.3162 µM): 0.816 | relative viability (NCI-H2405; first compound 1 µM): 0.294 | relative viability (NCI-H2170; first compound 0.01 µM): 0.553 | relative viability (NCI-H2170; first compound 0.03162 µM): 0.579 | relative viability (NCI-H2170; first compound 0.1 µM): 0.535 | relative viability (NCI-H2170; first compound 0.3162 µM): 0.423 | relative viability (NCI-H2170; first compound 1 µM): 0.254 | relative viability (LC-2-ad; first compound 0.01 µM): 0.818 | relative viability (LC-2-ad; first compound 0.03162 µM): 0.772 | relative viability (LC-2-ad; first compound 0.1 µM): 0.781 | relative viability (LC-2-ad; first compound 0.3162 µM): 0.703 | relative viability (LC-2-ad; first compound 1 µM): 0.606 | relative viability (BEN; first compound 0.01 µM): 1.05 | relative viability (BEN; first compound 0.03162 µM): 1.04 | relative viability (BEN; first compound 0.1 µM): 0.966 | relative viability (BEN; first compound 0.3162 µM): 1.01 | relative viability (BEN; first compound 1 µM): 0.658 | relative viability (NCI-H2342; first compound 0.01 µM): 0.449 | relative viability (NCI-H2342; first compound 0.03162 µM): 0.393 | relative viability (NCI-H2342; first compound 0.1 µM): 0.496 | relative viability (NCI-H2342; first compound 0.3162 µM): 0.457 | relative viability (NCI-H2342; first compound 1 µM): 0.515 | relative viability (SK-MES-1; first compound 0.01 µM): 0.831 | relative viability (SK-MES-1; first compound 0.03162 µM): 0.828 | relative viability (SK-MES-1; first compound 0.1 µM): 0.506 | relative viability (SK-MES-1; first compound 0.3162 µM): 0.247 | relative viability (SK-MES-1; first compound 1 µM): 0.189 | relative viability (NCI-H1734; first compound 0.01 µM): 0.746 | relative viability (NCI-H1734; first compound 0.03162 µM): 0.663 | relative viability (NCI-H1734; first compound 0.1 µM): 0.72 | relative viability (NCI-H1734; first compound 0.3162 µM): 0.491 | relative viability (NCI-H1734; first compound 1 µM): 0.316 | relative viability (NCI-H1395; first compound 0.01 µM): 0.505 | relative viability (NCI-H1395; first compound 0.03162 µM): 0.415 | relative viability (NCI-H1395; first compound 0.1 µM): 0.393 | relative viability (NCI-H1395; first compound 0.3162 µM): 0.387 | relative viability (NCI-H1395; first compound 1 µM): 0.354 | relative viability (NCI-H1355; first compound 0.01 µM): 0.705 | relative viability (NCI-H1355; first compound 0.03162 µM): 0.798 | relative viability (NCI-H1355; first compound 0.1 µM): 0.862 | relative viability (NCI-H1355; first compound 0.3162 µM): 0.862 | relative viability (NCI-H1355; first compound 1 µM): 0.615 | relative viability (HCC-366; first compound 0.01 µM): 0.364 | relative viability (HCC-366; first compound 0.03162 µM): 0.305 | relative viability (HCC-366; first compound 0.1 µM): 0.278 | relative viability (HCC-366; first compound 0.3162 µM): 0.157 | relative viability (HCC-366; first compound 1 µM): 0.0818 | relative viability (NCI-H2228; first compound 0.01 µM): 0.659 | relative viability (NCI-H2228; first compound 0.03162 µM): 0.778 | relative viability (NCI-H2228; first compound 0.1 µM): 0.637 | relative viability (NCI-H2228; first compound 0.3162 µM): 0.311 | relative viability (NCI-H2228; first compound 1 µM): 0.193 | relative viability (NCI-H596; first compound 0.01 µM): 0.723 | relative viability (NCI-H596; first compound 0.03162 µM): 0.631 | relative viability (NCI-H596; first compound 0.1 µM): 0.609 | relative viability (NCI-H596; first compound 0.3162 µM): 0.552 | relative viability (NCI-H596; first compound 1 µM): 0.478 | relative viability (HARA; first compound 0.01 µM): 0.768 | relative viability (HARA; first compound 0.03162 µM): 0.759 | relative viability (HARA; first compound 0.1 µM): 0.507 | relative viability (HARA; first compound 0.3162 µM): 0.301 | relative viability (HARA; first compound 1 µM): 0.229 | relative viability (NCI-H647; first compound 0.01 µM): 0.612 | relative viability (NCI-H647; first compound 0.03162 µM): 0.494 | relative viability (NCI-H647; first compound 0.1 µM): 0.238 | relative viability (NCI-H647; first compound 0.3162 µM): 0.0816 | relative viability (NCI-H647; first compound 1 µM): 0.0532 | relative viability (SK-LU-1; first compound 0.01 µM): 0.477 | relative viability (SK-LU-1; first compound 0.03162 µM): 0.389 | relative viability (SK-LU-1; first compound 0.1 µM): 0.306 | relative viability (SK-LU-1; first compound 0.3162 µM): 0.244 | relative viability (SK-LU-1; first compound 1 µM): 0.186 | relative viability (LOU-NH91; first compound 0.01 µM): 0.915 | relative viability (LOU-NH91; first compound 0.03162 µM): 0.914 | relative viability (LOU-NH91; first compound 0.1 µM): 0.867 | relative viability (LOU-NH91; first compound 0.3162 µM): 0.834 | relative viability (LOU-NH91; first compound 1 µM): 0.571 | relative viability (NCI-H661; first compound 0.01 µM): 0.798 | relative viability (NCI-H661; first compound 0.03162 µM): 0.779 | relative viability (NCI-H661; first compound 0.1 µM): 0.711 | relative viability (NCI-H661; first compound 0.3162 µM): 0.503 | relative viability (NCI-H661; first compound 1 µM): 0.426 | relative viability (NCI-H1437; first compound 0.01 µM): 0.696 | relative viability (NCI-H1437; first compound 0.03162 µM): 0.648 | relative viability (NCI-H1437; first compound 0.1 µM): 0.621 | relative viability (NCI-H1437; first compound 0.3162 µM): 0.612 | relative viability (NCI-H1437; first compound 1 µM): 0.433
